Data set [1] deals with sorafenib induced allodynia. In words: Chronic experiment: rat cold plate test, sorafenib induced allodynia. Conditions: for Licking latency, Before all Treatments: baseline, mean of 8 rats. Format: in vivo. The procedure:
1986 (86/609/EEC) for experimental animal care.
Dimiracetam, duloxetine and gabapentin were dissolved in water.
Sorafenib was dissolved in a vehicle constituted by 1% ethanol+1% Cremophor+[…]. Sorafenib was administered once daily for 14 days. Dimiracetam was administered by oral gavage twice daily for 14 days (co-administered with sorafenib).
P values≦0.05 were considered significant.

In data set [2] the test system is sorafenib induced allodynia. In words: Acute experiment: rat cold plate test, sorafenib allodynia. Conditions: for Acute antiallodynic efficacy on sorafenib induced allodynia (in words): single p.o. dose on day 14: dimiracetam 300, gabapentin 100, duloxetine 30 mg/kg, rat cold plate. Here is the method: Male Sprague Dowley adult rats (200-220 g—aged 7 weeks) were used. Groups of 4 rats were housed in 26 by 41 cm cages that were placed in the experimental room 24 h before the test for acclimatization. The animals were fed a standard laboratory diet and tap water ad libitum and kept at 23±1° C. with a 12 h light/dark cycle, light on at 7 a.m. All experiments were carried out in accordance with the European Communities Council Directive of 24 Nov. 1986 (86/609/EEC) for experimental animal care. All efforts were made to minimize the number of animals used and their suffering.
Dimiracetam, duloxetine and gabapentin were dissolved in water. Drug concentrations were adjusted to a volume of 10 ml/kg for dosing by oral administration or i.p. injection. Sorafenib was dissolved in a vehicle composed by 1% ethanol+1% Cremophor+98% saline for i.p. injection.
Control rats were treated with an equal volume of the sorafenib vehicle. Sorafenib was administered once daily for 14 consecutive days. Dimiracetam, gabapentin and duloxetine were administered once daily on day 14 after sorafenib treatment.
Rats were placed inside a stainless steel container, thermostatically set at 4° C. in a precision water-bath from KW Mechanical Workshop, Siena, Italy. Reaction times (in seconds) were measured with a stop-watch before and at regular intervals; the endpoint used was the licking of the fore or hind paws. An arbitrary cut-off time of 60 s was adopted (see Beyreuther et al., Eur. J. Pharmacol. 565, 98-104, 2007).
All experimental results are given as the mean±S.E.M. An analysis of variance, ANOVA, followed by Fisher's protected least significant difference procedure for post hoc comparison, was used to verify significance between two means of behavioral results. Data were analyzed with the StatView software for the Macintosh (1992). P values≦0.05 were considered significant.

Data set [3] can be described thus: Blood levels in healthy volunteers during Phase I studies. The format is in vivo. The settings on record: 1600 bid dose (3200 mg daily). The procedure: Blood levels were determined in healthy volunteers during Phase I studies.
The blood levels were determined for 1600 bid dose (i.e. 3200 mg daily).

[4] abbreviates: 15 min after single p.o. dose (dimiracetam 300, gabapentin 100, duloxetine 30 mg/kg) on day 14 of sorafenib 10 mg/kg.
Where [5] appears, read: 30 min after single p.o. dose (dimiracetam 300, gabapentin 100, duloxetine 30 mg/kg) on day 14 of sorafenib 10 mg/kg.
Where [6] appears, read: 60 min after single p.o. dose (dimiracetam 300, gabapentin 100, duloxetine 30 mg/kg) on day 14 of sorafenib 10 mg/kg.
The mark [7] stands for this setting: baseline before all treatments, group later given test drug p.o. + sorafenib 10 mg/kg once daily 14 days, cold plate 4° C., mean ± S.E.M., 5 rats.
Setting [8] is: day 14 of sorafenib 10 mg/kg, before single p.o. dose of test drug, cold plate 4° C.

As for `O=C1CN2C(=O)CCC2N1` (centres unmarked) [DIMIRACETAM, 2,5-dioxohexahydro-1H-pyrrolo[1,2-a]imidazole], the “Licking latency, Before all Treatments” value in data set [1] (group given dimiracetam 150 mg/kg p.o. b.i.d. + sorafenib 10 mg/kg i.p. once daily 14 days) is 27.3 ± 1.1 s. For the same compound, the “Licking latency, After 14 days of treatment, 1 h” value in data set [1] (dimiracetam 150 mg/kg p.o. b.i.d. + sorafenib 10 mg/kg i.p. 14 days, 1 h after end of treatment) is given as 23.8 ± 1.1 s. Moreover, the “Licking latency, After 14 days of treatment, 4 h” value in data set [1] (dimiracetam 150 mg/kg p.o. b.i.d. + sorafenib 10 mg/kg i.p. 14 days, 4 h after end of treatment) is listed as 23.3 ± 1.1 s. Further, in data set [1] (dimiracetam 150 mg/kg p.o. b.i.d. + sorafenib 10 mg/kg i.p. 14 days, 8 h after end of treatment), the “Licking latency, After 14 days of treatment, 8 h” value stood at 22.8 ± 1.2 s. In data set [1] (dimiracetam 150 mg/kg p.o. b.i.d. + sorafenib 10 mg/kg i.p. 14 days, 24 h after end of treatment), the “Licking latency, After 14 days of treatment, 24 h” value worked out at 21.9 ± 1.1 s. In addition, in data set [1] (dimiracetam 150 mg/kg p.o. b.i.d. + sorafenib 10 mg/kg i.p. 14 days, 48 h after end of treatment), the “Licking latency, After 14 days of treatment, 48 h” value is on record as 19.0 ± 0.6 ^ s. Moreover, in data set [1] (dimiracetam 150 mg/kg p.o. b.i.d. + sorafenib 10 mg/kg i.p. 14 days, 72 h after end of treatment), the “Licking latency, After 14 days of treatment, 72 h” value was determined as 14.9 ± 0.6 s. In addition, the “Licking latency, After 14 days of treatment, Pretest” value in data set [1] (dimiracetam 150 mg/kg p.o. b.i.d. + sorafenib 10 mg/kg i.p. 14 days, before last administration) came out at 24.3 ± 0.8 s. Also, in data set [1] (dimiracetam 150 mg/kg p.o. b.i.d. for 14 consecutive days with sorafenib), the “Duration of statistically significant antiallodynic effect after end of treatment” value is “up to 48 h”. The “Chronic antiallodynic effect (in words)” value in data set [1] (dimiracetam 150 mg/kg p.o. b.i.d. for 14 consecutive days, evaluated on day 14) is recorded as “statistically significant antiallodynic effect”. For the same compound, the “Development of tolerance (in words)” value in data set [1] (general statement, no data given) was “not to develop tolerance”. For the same compound, the “Licking latency, 14° day 15 min” value in data set [2] (setting [4]) turned out to be 19.8 ± 1.5 s; in data set [2] (vehicle i.p. (no sorafenib), 15 min after dimiracetam 300 mg/kg p.o.) it was 29.0 ± 1.9 s. The “Licking latency, 14° day 30 min” value is 16.0 ± 1.9 s in data set [2] (setting [5]) and 28.2 ± 2.3 s in data set [2] (vehicle i.p. (no sorafenib), 30 min after dimiracetam 300 mg/kg p.o.). Besides, the “Licking latency, 14° day 60 min” value in data set [2] (setting [6]) stood at 15.4 ± 1.4 s; in data set [2] (vehicle i.p. (no sorafenib), 60 min after dimiracetam 300 mg/kg p.o.), 27.2 ± 3.0 s. The “Licking latency, Pre test before all treatments” value in data set [2] (setting [7]) stood at 26.8 ± 3.0 s; in data set [2] (baseline, group given sorafenib vehicle i.p. + dimiracetam 300 mg/kg p.o. (no sorafenib)), 27.2 ± 2.8 s. The “Licking latency, 14° day Pre test” value in data set [2] (setting [8]) came to 15.8 ± 1.8 s; in data set [2] (vehicle i.p. 14 days (no sorafenib), before dimiracetam 300 mg/kg p.o.) it was 28.4 ± 2.1 s. In addition, the “Acute antiallodynic efficacy on sorafenib induced allodynia (in words)” value (“Acute antiallodynic efficacy” for short) in data set [2] is reported as “statistically significant effect on sorafenib induced allodynia 15 min after administration”. The “Blood level, mean minimal level over 24 hours (Cmin)” value in data set [3] was found to be 136 µM. In addition, in data set [3] (human, blood, read-out: Blood level, mean maximal level over 24 hours (Cmax)), the Cmax came to 536 µM.

With `CNCC[C@H](Oc1cccc2ccccc12)c1cccs1` [DULOXETINE, duloxetine], in data set [2] (setting [4]), the “Licking latency, 14° day 15 min” value amounted to 14.2 ± 1.6 s. Also, in data set [2] (setting [5]), the “Licking latency, 14° day 30 min” value amounted to 14.6 ± 1.5 s. For the same compound, in data set [2] (setting [6]), the “Licking latency, 14° day 60 min” value came to 13.4 ± 1.7 s. In addition, in data set [2] (setting [7]), the “Licking latency, Pre test before all treatments” value worked out at 27.8 ± 1.7 s. For the same compound, the “Licking latency, 14° day Pre test” value in data set [2] (setting [8]) stood at 13.2 ± 1.2 s. Moreover, in data set [2], the “Acute antiallodynic efficacy” value is “no significant effect”.

On to `NCC1(CC(=O)O)CCCCC1` [GABAPENTIN, gabapentin], for which the “Licking latency, 14° day 15 min” value in data set [2] (setting [4]) stood at 13.2 ± 1.8 s. Besides, in data set [2] (setting [5]), the “Licking latency, 14° day 30 min” value was found to be 13.6 ± 1.2 s. In addition, the “Licking latency, 14° day 60 min” value in data set [2] (setting [6]) worked out at 13.8 ± 1.8 s. Also, the “Licking latency, Pre test before all treatments” value in data set [2] (setting [7]) came out at 26.8 ± 2.3 s. In addition, the “Licking latency, 14° day Pre test” value in data set [2] (setting [8]) worked out at 15.4 ± 2.0 s. Besides, the “Acute antiallodynic efficacy” value in data set [2] is “no significant effect”.

As to `CNC(=O)c1cc(Oc2ccc(NC(=O)Nc3ccc(Cl)c(C(F)(F)F)c3)cc2)ccn1` [SORAFENIB, sorafenib], the “Licking latency, Before all Treatments” value in data set [1] (group given water + sorafenib 10 mg/kg i.p. once daily 14 days) was 26.9 ± 1.4 s. Besides, in data set [1] (water + sorafenib 10 mg/kg i.p. once daily 14 days), the “Licking latency, After 14 days of treatment, Pretest” value is 14.8 ± 1.3 s. For the same compound, the “Licking latency, After 14 days of treatment, 1 h” value in data set [1] (water + sorafenib 10 mg/kg i.p. once daily 14 days, 1 h) was found to be 14.3 ± 1.4 s. In addition, the “Licking latency, After 14 days of treatment, 4 h” value in data set [1] (water + sorafenib 10 mg/kg i.p. once daily 14 days, 4 h) stood at 15.1 ± 1.5 s. Moreover, in data set [1] (water + sorafenib 10 mg/kg i.p. once daily 14 days, 8 h), the “Licking latency, After 14 days of treatment, 8 h” value was found to be 16.0 ± 1.1 s. Also, the “Licking latency, After 14 days of treatment, 24 h” value in data set [1] (water + sorafenib 10 mg/kg i.p. once daily 14 days, 24 h) is 14.0 ± 1.1 s. Besides, the “Licking latency, After 14 days of treatment, 48 h” value in data set [1] (water + sorafenib 10 mg/kg i.p. once daily 14 days, 48 h) stood at 14.3 ± 1.2 s. Moreover, the “Licking latency, After 14 days of treatment, 72 h” value in data set [1] (water + sorafenib 10 mg/kg i.p. once daily 14 days, 72 h) is recorded as 15.0 ± 1.0 s. Also, the “Licking latency, Pre test before all treatments” value in data set [2] (baseline, group given sorafenib 10 mg/kg i.p. + water p.o.) amounted to 28.6 ± 2.1 s. The “Licking latency, 14° day 15 min” value in data set [2] (sorafenib 10 mg/kg i.p. once daily 14 days, 15 min after water p.o.) stood at 14.0 ± 1.8 s. The “Licking latency, 14° day 30 min” value in data set [2] (sorafenib 10 mg/kg i.p. once daily 14 days, 30 min after water p.o.) is 13.6 ± 1.8 s. In data set [2] (sorafenib 10 mg/kg i.p. once daily 14 days, 60 min after water p.o.), the “Licking latency, 14° day 60 min” value is 14.4 ± 2.3 s. The “Licking latency, 14° day Pre test” value in data set [2] (sorafenib 10 mg/kg i.p. once daily 14 days, before water p.o.) came out at 13.8 ± 2.0 s. The “Induction of allodynia by sorafenib (in words)” value in data set [2] (sorafenib 10 mg/kg i.p. once daily in rats, cold plate, day 14) is listed as “induced an allodynic responses to thermal stimuli”.

For the origin of these results see US20140051730A1, “THERAPEUTIC USE OF DIMIRACETAM TO PREVENT THE HAND AND FOOT SYNDROME CAUSED BY SORAFENIB” (NEUROTUNE AG, priority 2010, published 2014).
